Experimental data published in patent publication US20140051918A1, “LAPAROSCOPIC GASTRIC BAND WITH ACTIVE AGENTS” (Allergan, Inc., priority 2009, published 2014).
Ends that are not written are not given here.

Assay: Patient examples: laparoscopic gastric band releasing an active agent, with weight loss, appetite and blood sugar control reported
Type: in vivo, human
Settings: 322 pounds; for weight lost by the patient: 5'11", within 12 months; for weight lost by the patient / appetite as reported by the patient: gastric band containing the agent, released to a goal plasma concentration over 3-24 months
Description: (§1) A patient, having a body weight of 322 pounds and a height of 5′11″, complains to their physician that they have tried unsuccessfully to lose weight over the past 15 years and is concerned about the effect their excess weight may have on their health. […] A reservoir containing glucagon like peptide 1 (GLP-1), according to any of the embodiments of this application may also be utilized.
as §1, with “oxyntomodulin (OXM),” for “glucagon like peptide 1 (GLP-1),”, “utilized. An injection, liquid, pill, spray, inhalant, patch, or oral substance such as a gum containing oxyntomodulin (OXM) may also be used.” for “utilized.”
A patient, having a body weight of 322 pounds and a height of 5′11″, complains to their physician that they have tried unsuccessfully to lose weight over the past 15 years and is concerned about the effect their excess weight may have on their health.
as §1, with “Pancreatic Peptide (PP),” for “glucagon like peptide 1 (GLP-1),”, “utilized. An injection, liquid, pill, spray, inhalant, patch, or oral substance such as a gum containing Pancreatic Peptide (PP) may also be used.” for “utilized.”
as §1, with “Insulin,” for “glucagon like peptide 1 (GLP-1),”, “utilized. An injection, liquid, pill, spray, inhalant, patch, or oral substance such as a gum containing Insulin may also be used.” for “utilized.”
as §1, with “Leptin,” for “glucagon like peptide 1 (GLP-1),”, “utilized. An injection, liquid, pill, spray, inhalant, patch, or oral substance such as a gum containing Leptin may also be used. […] In the case of a female patient the goal plasma concentrations would be [10-20 ng/mL]p.” for “utilized.”
as §1, with “Amylin,” for “glucagon like peptide 1 (GLP-1),”, “utilized. An injection, liquid, pill, spray, inhalant, patch, or oral substance such as a gum containing Amylin may also be used.” for “utilized.”
as §1, with “Cholecystokinin (CCK),” for “glucagon like peptide 1 (GLP-1),”, “utilized. An injection, liquid, pill, spray, inhalant, patch, or oral substance such as a gum containing Cholecystokinin (CCK) may also be used.” for “utilized.”

Molecule | weight lost by the patient [pounds] | appetite as reported by the patient | blood sugar control as reported by the patient (gastric band containing Insulin, released to plasma concentrations of 5-30 μU/mL over 3-24 months)
Amylin (KCNTATCATQRLANFLVHSSNNFGAILSSTNVGSNTY; not fully specified (C-terminus, bridges); cysteine pairing not given here; UniProt P10997 34-70, looked up) [satiety inducing peptide hormone] | 58 | marked suppression of appetite | –
Cocaine-Amphetamine Regulated Transcript [CART] | 58 | marked suppression of appetite | –
Insulin | – | – | euglycemic effects, or better control by their body of blood sugars
Leptin | 58 | marked suppression of appetite | –
PYY: satiety inducing peptide hormone [Peptide Y-Y] | 58 | marked suppression of appetite | –
Pancreatic Peptide (APLEPVYPGDNATPEQMAQYAADLRRYINMLTRPRY; ends and bridges not checked; UniProt P01298 30-65, looked up) [PP, satiety inducing peptide hormone] | 58 | marked suppression of appetite | –
glucagon like peptide 1 (HAEGTFTSDVSSYLEGQAAKEFIAWLVKGR; ends and bridges not checked; UniProt P01275 98-127, looked up) [GLP-1, satiety inducing peptide hormone] | 58 | marked suppression of appetite | –
oxyntomodulin [OXM] | 58 | marked suppression of appetite | –
Cholecystokinin (peptide, UniProt P06307 21-115, looked up, Cholecystokinin, hormone that suppresses appetite when administered with or without gastric distension) Cholecystokinin: QPVPPADPAGSGLQRAEEAPRRQLRVSQRTDGESRAHLGALLARYIQQARKAPSGRMSIVKNLQNLDPSHRISDRDYMGWMDFGRRSAEEYEYPS | 58 | marked suppression of appetite | –
Ciliary neuro-trophic factor (protein, UniProt P26441 1-200, looked up) Ciliary neurotrophic factor: MAFTEHSPLTPHRRDLCSRSIWLARKIRSDLTALTESYVKHQGLNKNINLDSADGMPVASTDQWSELTEAERLQENLQAYRTFHVLLARLLEDQQVHFTPTEGDFHQAIHTLLLQVAAFAYQIEELMILLEYKIPRNEADGMPINVGDGGLFEKKLWGLKVLQELSQWTVRSIHDLRFISSHQTGIPARGSHYIANNKKM | 58 | marked suppression of appetite | –
